Data taken from patent US20230202997A1, “CHROMANOL, QUINONE OR HYDROQUINONE COMPOUNDS FOR TREATMENT OF SEPSIS” (Sulfateq B.V., priority 2020, published 2023).

Columns and labels:
[1] = tested on: NO production in HUVEC; test: Endothelial NO production (nitrate in conditioned medium), basal and after LPS; type: cell-based, Human
Description: (§1) Human Umbilical Cord Endothelial Cells (HUVEC, Lonza CC-2519) were maintained on 1% gelatin-coated culture flasks in RPMI1640 medium containing 20% fetal bovine serum, 2 mM Glutamine (Sigma-Aldrich), 1% Penicillin-Streptomycin solution (Sigma-Aldrich) and 50 μg/ml Bovine Pituitary Extract (Invitrogen). HUVEC were passaged by trypsinization when the cultures reach a confluency of 70%. For all experiments, HUVEC were seeded at 0.6·10^5 cells/cm^2 and allowed to adhere for 24 hours.
Cellular production of NO was approximated by measuring nitrate concentrations in culture media using the Measure-IT™ High-Sensitivity Nitrite Assay Kit (#M36051, ThermoFisher) according to manufacturer's instructions. […] Therefore, nitrate concentrations in conditioned media are a good approximate to assess cellular NO production. 50 μl conditioned medium derived from a single 96-wells plate well was used per assay and normalized against protein concentration. All experiments were performed in quadruplicate.
Endotoxins suppress endothelial NO production by limiting the activity of eNOS. HUVEC were pre-treated with vehicle (DMSO), BN-80933, SUL-138, or SUL-150 or (all 10 μM) prior to endotoxin (LPS 100 ng/ml) exposure for 24 hours. The nitrate levels in the conditioned medium from endothelial cells exposed to LPS averaged at 160 pmol/mg protein (˜33% reduction versus non LPS exposed HUVEC, p=0.002), which was lower than basal control levels. BN-80933 further suppressed the nitrate levels in the conditioned medium (FIG. 7A) to an average of 90 pmol/mg protein (p=0.008).

[2] = tested on: NO production in RAW264.7 macrophages; test: Macrophage NO production (nitrate in conditioned medium), basal and after LPS; type: cell-based, Mouse
Description: Mouse macrophage RAW264.7 cells (ATCC #TIB-71) were maintained in DMEM medium containing 10% fetal bovine serum, and 1% Penicillin-Streptomycin solution (Sigma-Aldrich). […] For all experiments, RAW264.7 cells were seeded at 0.5·10^5 cells/cm^2 and allowed to adhere for 24 hours. Cellular production of NO was approximated by measuring nitrate concentrations in culture media using the Measure-IT™ High-Sensitivity Nitrite Assay Kit (#M36051, ThermoFisher) according to manufacturer's instructions. […] Therefore, nitrate concentrations in conditioned media are a good approximate to assess cellular NO production. 50 μl conditioned medium derived from a single 96-wells plate well was used per assay and normalized against protein concentration. All experiments were performed in quadruplicate. LPS induces macrophage NO production by activating iNOS. RAW264.7 macrophages were pre-treated with vehicle (DMSO), BN-80933, SUL-138, or SUL-150 or (all 10 μM) prior to endotoxin (LPS 100 ng/ml) exposure for 24 hours. The nitrate levels in the conditioned medium from LPS exposed RAW264.7 macrophages averaged at 83 pmol/mg protein (˜16-fold increase versus non-exposed RAW264.7 cells, p=0.001).

[3] = tested on: cytoplasmic oxidative stress in HUVEC; test: LPS-induced cellular superoxide in HUVEC (DHE); type: cell-based, Human; settings: 10 μM for 30 min, LPS 100 ng/ml 24 hours
Description: as §1
(§2) The production of cellular and mitochondrial oxidative stress was measured using fluorescent probes for cellular and mitochondrial superoxide, i.e. dihydroethidium (DHE) and MitoSox (ThermoFisher), respectively. HUVEC were incubated with BN-80933, SUL-138 or SUL-150 (all 10 μM) for 30 min. Next, HUVEC were exposed to LPS (100 ng/ml) for an additional 24 hours. In the final hour of incubation, 2.5 μM of DHE or MitoSox was applied to each sample. HUVEC were washed in PBS and fixed in 4% paraformaldehyde at room temperature for 15 min. Nuclear staining was performed by 5 μM […] (DAPI) and fluorescence intensity of the samples was recorded in a CLARIOStar Plus plate reader (BMG Labtech) equipped with the appropriate filter sets. Fluorescence recordings for DHE and MitoSox were corrected for DAPI fluorescence. All experiments were performed in quadruplicate.

[4] = tested on: mitochondrial oxidative stress in HUVEC; test: LPS-induced mitochondrial superoxide in HUVEC (MitoSox); type: cell-based, Human; settings: 10 μM for 30 min, LPS 100 ng/ml 24 hours
Description: as §1, §2

[5] = tested on: TNFα mRNA expression; test: Endothelial inflammatory activation after endotoxin, TNFα mRNA (Example 5); type: cell-based, Human; settings: HUVEC; 10 μM for 30 min
Description: as §1
(§3) HUVEC cells were lysed in triZOL reagens (Invitrogen) and total RNA isolated according to manufacturers' instruction. 1 μg total RNA per sample was reverse transcribed using the FirstAid Reverse Transcription Kit (ThermoFisher). Copy-DNA equivalents of 5 ng total RNA were amplified on a ViiA7 Real-time PCR system (ThermoFisher, Waltham, Mass.) using iTaq Universal SYBR Green Supermix (Bio-Rad, Hercules, Calif.) and primers specific for tumor necrosis factor alpha (TNFα; sense 5′-[…]-3′, antisense 5′-[…]-3′), interleukin 1 beta (IL-1β; sense 5′-[…]-3′, antisense 5′-[…]-3′), interleukin-6 (IL-6; sense 5′-[…]-3′, antisense 5′-[…]-3′) and beta actin (ACTB; sense 5′-[…]-3′, antisense 5′-[…]-3′) as loading control. Amplification was performed for 40 cycles of 95° C. for 30 s, 60° C. for 1 min. Relative mRNA expression was calculated according to the δδCt-method.

[6] = tested on: IL-1β mRNA expression; test: Endothelial inflammatory activation after endotoxin, IL-1β mRNA (Example 5); type: cell-based, Human; settings: HUVEC; 10 μM for 30 min
Description: as §1, §3

[7] = tested on: IL-6 mRNA expression; test: Endothelial inflammatory activation after endotoxin, IL-6 mRNA (Example 5); type: cell-based, Human; settings: HUVEC; 10 μM for 30 min
Description: as §1, §3

[8] = tested on: HUVEC; test: Cell viability after hypothermia-rewarming stress (Neutral Red); type: cell-based, Human; settings: 10 μM for 1 hour, 4° C. for 24 hours followed by 37° C. for 3 hours
Description: as §1
HUVEC were pre-treated with BN-80933, SUL-138 or SUL-150 (all 10 μM) for 1 hour in a humidified incubator at 37° C. Following pre-treatment, HUVEC were placed in a cold room (2-8° C.) for 24 hours and subsequently placed back at 37° C. for a 3 hour rewarming period. After 1 hour of rewarming, cell culture medium was replaced by prewarmed and filtered 0.4 mg/mL Neutral Red (#N463 8, Sigma-Aldrich) in culture medium. After the remaining 2 hour rewarming period, HUVEC were washed with PBS and NRU was solubilized in 100 μL resorption solution (50% ethanol, 1% ascetic acid in dH2O). The absorbance was measured at a wavelength of 550 nm on a BioTek ELx808 plate reader. The recorded OD550 nm values were normalized to control samples that were maintained at 37° C. at all times, which were assumed to be 100% viable.

[9] = tested on: TNFα mRNA expression; test: Inhibition of LPS-induced TNFα mRNA expression in HUVEC; type: cell-based, Human; settings: 10 μM for 30 min, then LPS 24 hours
Description: as §1
(§4) HUVEC and NRK52E cells were pre-incubated with SUL compounds (10 μM) for 30 min and subsequently exposed to LPS for 24 hours under standard culture conditions. Cells were lysed in triZOL reagens (Invitrogen) and total RNA isolated according to manufacturers' instruction. 1 μg total RNA per sample was reverse transcribed using the FirstAid Reverse Transcription Kit (ThermoFisher). Copy-DNA equivalents of 5 ng total RNA were amplified on a ViiA7 Real-time PCR system (ThermoFisher, Waltham, Mass.) using iTaq Universal SYBR Green Supermix (Bio-Rad, Hercules, Calif.) and primers specific for tumor necrosis factor alpha, interleukin 1 beta, interleukin-6 and beta actin as loading control. Amplification was performed for 40 cycles of 95° C. for 30 s, 60° C. for 1 min. Relative mRNA expression was calculated as 2^−(Cq^gene^−Cq^reference^) and normalized to unstimulated control cells (100% inhibition) and vehicle-treated and LPS exposed cells (0% inhibition). The following primers were used: […]

[10] = tested on: IL-1β mRNA expression; test: Inhibition of LPS-induced IL-1β mRNA expression in HUVEC; type: cell-based, Human; settings: 10 μM for 30 min, then LPS 24 hours
Description: as §1, §4

[11] = tested on: IL-6 mRNA expression; test: Inhibition of LPS-induced IL-6 mRNA expression in HUVEC; type: cell-based, Human; settings: 10 μM for 30 min, then LPS 24 hours
Description: as §1, §4

[12] = tested on: TNFα mRNA expression; test: Inhibition of LPS-induced TNFα mRNA expression in NRK52E; type: cell-based, Rat; settings: 10 μM for 30 min, then LPS 24 hours
Description: (§5) Rat kidney epithelial cells (ATCC #CRL-1571) were maintained in DMEM medium containing 10% fetal bovine serum, and 1% Penicillin-Streptomycin solution (Sigma-Aldrich). NRK52E cells were passaged by trypsinization when the cultures reached a confluency of 70%. For all experiments, NRK52E cells were seeded at 0.6·10^5 cells/cm^2 and allowed to adhere for 24 hours.
as §4

[13] = tested on: IL-1β mRNA expression; test: Inhibition of LPS-induced IL-1β mRNA expression in NRK52E; type: cell-based, Rat; settings: 10 μM for 30 min, then LPS 24 hours
Description: as §5, §4

[14] = tested on: IL-6 mRNA expression; test: Inhibition of LPS-induced IL-6 mRNA expression in NRK52E; type: cell-based, Rat; settings: 10 μM for 30 min, then LPS 24 hours
Description: as §5, §4

[15] = 10 μM pre-treatment, LPS 100 ng/ml for 24 hours

Structure (SMILES): Cc1c(C)c2c(c(C)c1O)CC[C@@](C)(C(=O)N1CCN(c3ccc(NC(=N)c4cccs4)cc3)CC1)O2 [BN-80933, reference compound]
- nitrate levels in the conditioned medium after LPS [1, 15]: 90 pmol/mg protein
- suppression of basal endothelial NO production (nitrate in conditioned medium) ([1]; no LPS, 10 μM): ~38%
- LPS-induced increase in extracellular nitrate level [2, 15]: blunted the LPS-induced increase in extracellular nitrate level
- basal production of extracellular nitrate ([2]; no LPS, 10 μM): Neither BN-80933, SUL-138, nor SUL-150 affected the basal production of extracellular nitrate
- LPS-induced cytoplasmic oxidative stress (DHE) [3]: mitigates the induction of cytoplasmic oxidative stress
- LPS-induced mitochondrial oxidative stress (MitoSox) [4]: not affected by the pre-treatment with BN-80933
- LPS-induced mRNA expression of TNFα [5]: precludes the induction of mRNA expression of the pro-inflammatory cytokine TNFα
- LPS-induced mRNA expression of IL-1β [6]: does not preclude the LPS-induced mRNA expression of the interleukins IL-1β and IL-6
- LPS-induced mRNA expression of IL-6 [7]: does not preclude the LPS-induced mRNA expression of the interleukins IL-1β and IL-6
- reduction in cell viability versus normothermic control cells [8]: ~55%

Structure (SMILES): Cc1c(C)c2c(c(C)c1O)CC[C@@](C)(C(=O)N[C@@H]1CCCNC1)O2 [SUL-13, (2S)-6-hydroxy-2,5,7,8-tetramethyl-N-((R)-piperidin-3-yl)-3,4-dihydro-1-benzopyran-2-carboxamide]
- inhibition of LPS-induced mRNA expression of TNFα [9]: 41.2 ± 8.2 %
- inhibition of LPS-induced mRNA expression of IL-1β [10]: 38.6 ± 4.2 %
- inhibition of LPS-induced mRNA expression of IL-6 [11]: 45.7 ± 9.1 %

Structure (SMILES): Cc1c(C)c2c(c(C)c1O)CCC(C)(C(N)=O)O2 (stereo not shown) [SUL-89, 6-hydroxy-2,5,7,8-tetramethyl-3,4-dihydro-2H-1-benzopyran-2-carboxamide, reference compound]
- inhibition of LPS-induced mRNA expression of TNFα [12]: 17.5 ± 3.4%
- inhibition of LPS-induced mRNA expression of IL-1β [13]: 12.3 ± 6.4%
- inhibition of LPS-induced mRNA expression of IL-6 [14]: 8.7 ± 4.6%

Structure (SMILES): Cc1c(C)c2c(c(C)c1O)CCC(C)(C(=O)NCc1ccccc1)O2 (stereo not shown) [SUL-96, N-benzyl-6-hydroxy-2,5,7,8-tetramethyl-3,4-dihydro-2H-1-benzopyran-2-carboxamide]
- inhibition of LPS-induced mRNA expression of TNFα [12]: 85.4 ± 4.7 %
- inhibition of LPS-induced mRNA expression of IL-1β [13]: 81.7 ± 7.2 %
- inhibition of LPS-induced mRNA expression of IL-6 [14]: 89.9 ± 5.8 %

Structure (SMILES): COC(=O)CNC(=O)C1(C)CCc2c(C)c(O)c(C)c(C)c2O1 (stereo not shown) [SUL-99, methyl [(6-hydroxy-2,5,7,8-tetramethyl-3,4-dihydro-2H-1-benzopyran-2-carbonyl)amino]acetate, reference compound]
- inhibition of LPS-induced mRNA expression of TNFα [9]: 35.1 ± 6.2 %
- inhibition of LPS-induced mRNA expression of IL-1β [10]: 31.5 ± 4.5 %
- inhibition of LPS-induced mRNA expression of IL-6 [11]: 32.7 ± 8.1 %

Structure (SMILES): Cc1c(C)c2c(c(C)c1O)CCC(C)(C(=O)Nc1ccccc1)O2 (stereo not shown) [SUL-103, 6-hydroxy-2,5,7,8-tetramethyl-N-phenyl-3,4-dihydro-2H-1-benzopyran-2-carboxamide]
- inhibition of LPS-induced mRNA expression of TNFα [12]: 67.8 ± 7.8 %
- inhibition of LPS-induced mRNA expression of IL-1β [13]: 59.2 ± 7.9 %
- inhibition of LPS-induced mRNA expression of IL-6 [14]: 63.3 ± 1.4 %

Structure (SMILES): Cc1c(C)c2c(c(C)c1O)CCC(C)(C(=O)N[C@H](CO)c1ccccc1)O2 (stereo partly drawn) [SUL-129, 6-hydroxy-N-[(1S)-2-hydroxy-1-phenylethyl]-2,5,7,8-tetramethyl-3,4-dihydro-2H-1-benzopyran-2-carboxamide]
- inhibition of LPS-induced mRNA expression of TNFα [12]: 75.6 ± 6.4 %
- inhibition of LPS-induced mRNA expression of IL-1β [13]: 75.9 ± 7.1 %
- inhibition of LPS-induced mRNA expression of IL-6 [14]: 69.2 ± 2.6 %

Structure (SMILES): Cc1c(C)c(O)c(CC[C@@](C)(O)C(=O)N2CCN(CCO)CC2)c(C)c1O [SUL-138M2, 4-(2,5-dihydroxy-3,4,6-trimethylphenyl)-2-hydroxy-1-(4-(2-hydroxyethyl)piperazin-1-yl)-2-methylbutan-1-one]
- inhibition of LPS-induced mRNA expression of TNFα [9]: 58.1 ± 3.1 %
- inhibition of LPS-induced mRNA expression of IL-1β [10]: 51.7 ± 8.0 %
- inhibition of LPS-induced mRNA expression of IL-6 [11]: 55.2 ± 8.5 %
